We go through 2 compounds from article PMC8192780 (2021).

The subject of assay [1] is c7G15 Chili with r4CI at 34 (R3 ligated to R4) (RNA, aptamer, 7-deazaguanine (c7G) at 15; 4-cyanoindole ribonucleoside (r4CI) replaces U34; 3'-phosphate on printed 3' fragment) GGCUAGCUGGAGGGGCGCCAGUUCGCUGGUGGUUGGGUGCGGUCGGCUAGCC
As to the kind of experiment: FRET from r4CI to ligand. To be noted: K+ 125 mM, Mg2+ 5 mM; 40 mM HEPES pH 7.5.

The test system of assay [2] is c7G15-modified Chili (R3 ligated to R2) (RNA, aptamer, 7-deazaguanine (c7G) at 15; 3'-phosphate on printed 3' fragment) GGCUAGCUGGAGGGGCGCCAGUUCGCUGGUGGUUGGGUGCGGUCGGCUAGCC
As to the kind of experiment: absorbance and fluorescence. To be noted: K+ 125 mM, Mg2+ 5 mM; 40 mM HEPES pH 7.5; 10 µM RNA and ligand (absorbance).

Assay [3] concerns Chili C40U (Tr13) (RNA, aptamer) GGCUAGCUGGAGGGGCGCCAGUUCGCUGGUGGUUGGGUGUGGUCGGCUAGCC
As to the kind of experiment: absorbance and fluorescence. To be noted: K+ 125 mM, Mg2+ 5 mM; 40 mM HEPES pH 7.5; 5 µM RNA and ligand; 30% reduced fluorescence.

Assay [4] relates to Parent Chili (Tr1) (RNA, aptamer) GGCUAGCUGGAGGGGCGCCAGUUCGCUGGUGGUUGGGUGCGGUCGGCUAGCC
As to the kind of experiment: fluorescence activation. To be noted: 40 mM HEPES pH 7.5.

Assay [5] deals with Chili G15A (Tr12) (RNA, aptamer) GGCUAGCUGGAGGGACGCCAGUUCGCUGGUGGUUGGGUGCGGUCGGCUAGCC
As to the kind of experiment: absorbance and fluorescence. To be noted: K+ 125 mM, Mg2+ 5 mM; 40 mM HEPES pH 7.5; 5 µM RNA and ligand.

Assay [6] deals with Chili G15A/C40U (Tr14) (RNA, aptamer) GGCUAGCUGGAGGGACGCCAGUUCGCUGGUGGUUGGGUGUGGUCGGCUAGCC
As to the kind of experiment: absorbance and fluorescence. To be noted: K+ 125 mM, Mg2+ 5 mM; 40 mM HEPES pH 7.5; 5 µM RNA and ligand; binding site only partially restored.

Assay [7] has as its system Parent Chili (Tr1) (RNA, aptamer) GGCUAGCUGGAGGGGCGCCAGUUCGCUGGUGGUUGGGUGCGGUCGGCUAGCC
As to the kind of experiment: X-ray crystallography. To be noted: K+ 50 mM, Mg2+ 5 mM, 10 mM HEPES pH 8.0, then MES pH 5.4-5.8, spermine, PEG 400.

Assay [8] has as its system c7G15 Chili with r4CI at 46 (R3 ligated to R5) (RNA, aptamer, 7-deazaguanine (c7G) at 15; 4-cyanoindole ribonucleoside (r4CI) replaces G46; 3'-phosphate on printed 3' fragment) GGCUAGCUGGAGGGGCGCCAGUUCGCUGGUGGUUGGGUGCGGUCGGCUAGCC
As to the kind of experiment: FRET from r4CI to ligand. To be noted: K+ 125 mM, Mg2+ 5 mM; 40 mM HEPES pH 7.5.

Assay [9] deals with Chili P1-1 (Tr4) (RNA, aptamer) GGCAGCUGGAGGGGCGCCAGUUCGCUGGUGGUUGGGUGCGGUCGGCUGCC
As to the kind of experiment: fluorescence activation. To be noted: K+ 125 mM, Mg2+ 5 mM; 40 mM HEPES pH 7.5; 1 µM RNA and ligand; >80% of parent.

Assay [10] concerns circularly permuted Chili aptamer (Tr10) (RNA, aptamer) GGGUGCGGUCAGUCCGGAAGGACUGGAGGGGCGCCAGUUCGCUGGUGGUU
As to the kind of experiment: fluorescence activation. To be noted: K+ 125 mM, Mg2+ 5 mM; 40 mM HEPES pH 7.5; 75% of P1A fluorescence enhancement.

Assay [11] has as its system Chili P1-3 (Tr6) (RNA, aptamer) GGACUGGAGGGGCGCCAGUUCGCUGGUGGUUGGGUGCGGUCGGUCC
As to the kind of experiment: fluorescence activation. To be noted: K+ 125 mM, Mg2+ 5 mM; 40 mM HEPES pH 7.5; 1 µM RNA and ligand; >80% of parent.

Assay [12] relates to Chili P1C (Tr2) (RNA, aptamer) GGCUAGCCGGAGGGGCGCCAGUUCGCUGGUGGUUGGGUGCGGUCGGCUAGCC
As to the kind of experiment: fluorescence activation. To be noted: K+ 125 mM, Mg2+ 5 mM; 40 mM HEPES pH 7.5; 1 µM RNA and ligand; slower maturation than parent.

For assay [13], the system named is Chili P1A (Tr3) (RNA, aptamer) GGCUAGCUGGAGGGGCGCCAGUUCGCUGGUGGUUGGGUGCGGUCAGCUAGCC
As to the kind of experiment: fluorescence activation. To be noted: K+ 125 mM, Mg2+ 5 mM; 40 mM HEPES pH 7.5; 1 µM RNA and ligand; slower maturation than parent.

Assay [14] concerns Chili P1-2 (Tr5) (RNA, aptamer) GGAGCUGGAGGGGCGCCAGUUCGCUGGUGGUUGGGUGCGGUCGGCUCC
As to the kind of experiment: fluorescence activation. To be noted: K+ 125 mM, Mg2+ 5 mM; 40 mM HEPES pH 7.5; 1 µM RNA and ligand; >80% of parent.

For `COc1cc(/C=C2N=C(/C=N/O)N(c3ccc([N+](C)(C)C)cc3)C\2=O)cc(OC)c1O`, the binding result in assay [1] is recorded as “no”; in assay [2], “no”; in assay [3] it was “yes”; in assay [4] (Na+ (replaces K+, 125 mM), 25% residual intensity against K+) it was “yes”; in assay [4] (Tl+ (replaces K+, 125 mM), intensity preserved against K+) it was “yes”; in assay [5], “no”. Besides, the binding result in assay [6] is listed as “yes”; in assay [7] (2.25 Å) it was “yes”; in assay [8], “no”.
Take `COc1cc(/C=C2\N=C(C)N(c3ccc([N+](C)(C)C)cc3)C2=O)cc(OC)c1O`: the binding result in [9], in assay [10], in assay [11], in assay [12], in assay [13] and in assay [7] (2.95 Å) was “yes” throughout. Further, the binding result in [14] is given as “yes”.
